Measured values: patent US20240343762A1, “USE OF PROTON PUMP MODULATOR IN PREPARING REAGENT” (SHANGHAI QUIETD BIOTECHNOLOGY CO. LTD., priority 2021, published 2024)
Ends that are not written are not given here.

B1: Disordered control QD201 with a biotin label at the C' end (peptide)
peptide: YGRKKRRQRRRVCDSSVVP-biotin

Assays:
[1] = system: hippocampal CA1 pyramidal neurons; experiment: Whole-cell patch-clamp recording of spontaneous excitatory postsynaptic current (sEPSC) in hippocampus brain slice; format: cell-based, mouse; settings: sEPSC at -70 mV, perfusion for 5 min; 5 μM in Embodiment 3
Description: 0.1-0.15 ml of 20% ethyl carbamate was injected into the abdominal cavity of a C57 mouse of 2 to 3 months old for anesthesia; a head was quickly cut, and brain tissues were stripped and put into artificial cerebrospinal fluid (ACSF) ice-water mixed liquid into which mixed gas (95% O2 and 5% CO2) was introduced in advance, and stood for 2 min; the ACSF included the following components: […] of NaCl, […] of KCl, 0.12 mM of NaH2PO4, 0.25 mM of CaCl2), 0.12 mM of MgCl2, 25 mM of NaHCO3 and 11 mM of glucose. A hippocampus coronal brain slice of 350 μm was cut by a vibration slicer. The hippocampus coronal brain slice was placed into the ACSF at room temperature for more than 30 min for recovery, and then the brain slice was put into a record slot; continuous perfusing was performed at a speed of 2 to 2.5 ml/min by the ACSF into which the mixed gas was introduced; blind-binding sealing was performed on hippocampus CA1 pyramidal neuron under an Olympic BX51 upright microscope; whole-cell patch-clamp was performed by an Axon700B amplifier and a 1550B digital-to-analog converter; spontaneous excitatory postsynaptic current (sEPSC) of the pyramidal neuron was recorded by a voltage clamp under the clamp voltage of −70 mV; after recording for 5 min, synthetic polypeptides such as 5 μM QD202 or QD202 N′-1, C′-1 and C′-2 for 5 min; and then perfusing and flushing were performed for 10 min by the ACSF. The recorded data was analyzed by Minianalysis software. […]

[2] = biological target: T1, ATP6V1B2 protein of mouse brain hippocampus tissue (endogenous) (mouse, UniProt P62814 1-511); experiment: immunoprecipitation with biotin antibody from mouse hippocampus lysate, SDS-PAGE, mass spectrometry
T1 construct: Endogenous protein in tissue lysate; also called band of about 55 kDa
T1 sequence (P62814 whole entry): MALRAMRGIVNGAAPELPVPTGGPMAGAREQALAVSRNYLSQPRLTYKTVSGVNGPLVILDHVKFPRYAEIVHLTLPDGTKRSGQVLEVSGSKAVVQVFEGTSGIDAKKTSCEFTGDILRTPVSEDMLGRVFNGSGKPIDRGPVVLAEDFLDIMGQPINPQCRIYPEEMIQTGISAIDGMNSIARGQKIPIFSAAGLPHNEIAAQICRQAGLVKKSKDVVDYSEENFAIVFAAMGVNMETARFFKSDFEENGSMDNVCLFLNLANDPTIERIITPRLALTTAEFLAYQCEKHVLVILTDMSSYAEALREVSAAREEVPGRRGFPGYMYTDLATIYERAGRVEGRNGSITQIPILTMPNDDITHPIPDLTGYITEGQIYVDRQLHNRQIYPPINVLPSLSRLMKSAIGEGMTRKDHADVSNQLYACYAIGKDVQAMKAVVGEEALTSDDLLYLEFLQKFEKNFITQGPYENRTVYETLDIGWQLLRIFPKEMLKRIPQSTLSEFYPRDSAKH

Row | Molecule | spontaneous excitatory synaptic transmitter release of hippocampal CA1 neurons [1] | binding result [2]
1 | QD202 N′-1: polypeptide of SEQ ID NO. 2; QD202 with one amino acid removed at the N end (YGRKKRRQRRRPVDVVCS; QD202 N -1) | effect similar to that of QD202 cannot be observed | 
2 | QD202 C′-1: polypeptide of SEQ ID NO. 3; QD202 with one amino acid removed at the C end (YGRKKRRQRRRSPVDVVC; QD202 C -1) | effect similar to that of QD202 can still be observed | 
3 | QD202 C′-2: polypeptide of SEQ ID NO. 4; QD202 with two amino acids removed at the C end (YGRKKRRQRRRSPVDVV; QD202 C -2) | effect similar to that of QD202 cannot be observed | 
4 | B1 |  | no binding
